From patent US20260241049A1, “Radiopharmaceutical Compositions Targeting Glypican-3 and Uses Thereof” (RayzeBio, Inc., priority 2023, published 2026)
Starred links: 1 amine or outer side, 2 acyl side, 3 side chain; linkers in the order of their positions; H or OH if unused. Positions of bridges follow the written chain, without caps; N, C: chain ends. Non-standard residues stand in square brackets, D forms with d. Residues, ends and D or L forms follow the SMILES beside them. Groups on a side chain read outwards from the residue. *: point of attachment. Phe(4-(1-Me-pyrazol-4-yl)) = Cn1cc(-c2ccc(C[C@H](N)C(=O)O)cc2)cn1; NMeAla(isoquinolin-7-yl) = CN[C@@H](Cc1ccc2ccncc2c1)C(=O)O; DOTA = O=C(O)CN1CCN(CC(=O)O)CCN(CC(=O)*)CCN(CC(=O)O)CC1; PEG12 = NCCOCCOCCOCCOCCOCCOCCOCCOCCOCCOCCOCCOCCC(=O)O; Phe(4-CH2COOH) = N[C@@H](Cc1ccc(CC(=O)O)cc1)C(=O)O; 3Pal(6-Ph) = N[C@@H](Cc1ccc(-c2ccccc2)nc1)C(=O)O; Biotin = O=C1N[C@H]2[C@H](CS[C@H]2CCCCC(=O)*)N1; Phe(4-COOH) = N[C@@H](Cc1ccc(C(=O)O)cc1)C(=O)O; Piperazinyl(4-CH2COOH) = O=C(O)CN1CCN(*)CC1; NMe2Nal = CN[C@@H](Cc1ccc2ccccc2c1)C(=O)O; X1 = CO[C@@H](O)[C@H](N[*:1])C(=O)[*:2]; AEF = NCCOc1ccc(C[C@H](N)C(=O)O)cc1; NMeI = CC[C@H](C)[C@H](NC)C(=O)O; NMeQ = CN[C@@H](CCC(N)=O)C(=O)O; NMehSer = CN[C@@H](CCO)C(=O)O; NMeK = CN[C@@H](CCCCN)C(=O)O; NMeDap = CN[C@@H](CN)C(=O)O; NMeC = CN[C@@H](CS)C(=O)O; Carboxymethyl = O=C(O)C*; NMeA = CN[C@@H](C)C(=O)O; CO = O=C([*:1])[*:2]

What follows are molecules tested against Human Glypican3-Fc (Homo sapiens, UniProt P51654) (assay: SPR binding to Glypican-3, Method B-3 (Glypican3-Fc captured on Protein A chip, 5-point dilution series)). Details: SPR method B-3.
Experimental: A Protein A sensor chip (Cytiva) was inserted into a Biacore T200 (Cytiva), priming was performed three times with a running buffer: HBS-P+, pH 7.4 (Cytiva), and equilibration was carried out at a flow rate of 30 μL/min. Glypican3-Fc was allowed to react for 60 seconds at a flow rate of 10 μL/min. After capturing human Glypican3-Fe, a peptide solution prepared to 10 mM in DMSO solution was diluted with a running buffer to a final concentration of 10 μM. After that, 5 serial dilution series (100 nM, 50 nM, 25 nM, 10 nM, 5 nM) of peptide solutions were prepared. Using the above samples, peptide kinetics for Glypican3 was obtained by SPR measurement. Kinetics evaluation of Glypican3 was performed by SPR measurements at a flow rate of 10 LL/min, setting the association time to 120 seconds and the disassociation time to 600 seconds.
The obtained data by Method B-1, Method B-2, Method B-3 and Method B-4 were analyzed by follow. Single Cycle Kinetics was used as the kinetics evaluation model, and curve fitting was performed using Biacore T200 Evaluation Software Version 3.0 (Cytiva).

Row | Structure (SMILES) | Kd [nM]
1 | CC[C@H](C)[C@@H]1NC(=O)[C@H](Cc2ccc(C(=O)O)cc2)NC(=O)[C@H](CCC(N)=O)N(C)C(=O)[C@H](CC(=O)O)NC(=O)[C@H]([C@@H](C)CC)N(C)C(=O)[C@H](CCCCNC(=O)CCOCCOCCOCCOCCOCCOCCOCCOCCOCCOCCOCCOCCNC(=O)CCCC[C@@H]2SC[C@@H]3NC(=O)N[C@@H]32)N(C)C(=O)CSC[C@@H](C(N)=O)N(C)C(=O)[C@H](Cc2ccc(-c3ccccc3)nc2)NC(=O)CNC(=O)[C@H](Cc2ccc3ccncc3c2)N(C)C(=O)[C@H](Cc2ccc(OCC(=O)O)cc2)NC(=O)[C@H]([C@@H](C)CC)NC1=O [PLB-64] ({CH2CO}-[NMeK]([PEG12-Biotin])[NMeI]D[NMeQ][Phe(4-COOH)]IIY(Carboxymethyl)[NMeAla(isoquinolin-7-yl)]G[3Pal(6-Ph)][NMeC]-NH2; thioether N-12) | 1.04
2 | CC[C@H](C)[C@@H]1NC(=O)[C@H]([C@@H](C)OC)NC(=O)[C@H](Cc2ccc(C(=O)O)cc2)NC(=O)[C@H](CNC(=O)N2CCN(CC(=O)O)CC2)N(C)C(=O)[C@H](CC(=O)O)NC(=O)[C@H](CCOC)N(C)C(=O)[C@H](CCCCNC(=O)N2CCN(CC(=O)O)CC2)N(C)C(=O)SCC[C@@H](C(N)=O)N(C)C(=O)[C@H](Cc2ccc(-c3ccccc3)nc2)NC(=O)CNC(=O)[C@H](Cc2ccc3ccncc3c2)N(C)C(=O)[C@H](Cc2ccc(OCCN)cc2)NC1=O [Conjugate 2-38] | 1.8
3 | CC[C@H](C)[C@@H]1NC(=O)[C@H]([C@H](O)OC)NC(=O)[C@H](Cc2ccc(C(=O)O)cc2)NC(=O)[C@H](CCC(N)=O)N(C)C(=O)[C@H](CC(=O)O)NC(=O)[C@H](CCOC)N(C)C(=O)[C@H](CCCCNC(=O)N2CCN(CC(=O)O)CC2)N(C)C(=O)CSC[C@@H](C(N)=O)N(C)C(=O)[C@H](Cc2ccc(-c3ccccc3)nc2)NC(=O)CNC(=O)[C@H](Cc2ccc3ccncc3c2)N(C)C(=O)[C@H](Cc2ccc(O)cc2)NC1=O [Conjugate 2-25] ({CH2CO}-[NMeK]([CO-Piperazinyl(4-CH2COOH)])[NMehSer](Me)D[NMeQ][Phe(4-COOH)][X1]IY[NMeAla(isoquinolin-7-yl)]G[3Pal(6-Ph)][NMeC]-NH2; thioether N-12) | 6.6
4 | CC[C@H](C)[C@@H]1NC(=O)[C@H]([C@@H](C)OC)NC(=O)[C@H](Cc2ccc(C(=O)O)cc2)NC(=O)[C@H](CCC(N)=O)N(C)C(=O)[C@H](CC(=O)O)NC(=O)[C@H](CCOC)N(C)C(=O)[C@H](CCCCNC(=O)CN2CCN(CC(=O)O)CCN(CC(=O)O)CCN(CC(=O)O)CC2)N(C)C(=O)CSC[C@@H](C(N)=O)N(C)C(=O)[C@H](Cc2ccc(-c3ccccc3)nc2)NC(=O)CNC(=O)[C@H](Cc2ccc3ccncc3c2)N(C)C(=O)[C@H](Cc2ccc(OCC(=O)O)cc2)NC1=O [Lu-C-63] ({CH2CO}-[NMeK](DOTA)[NMehSer](Me)D[NMeQ][Phe(4-COOH)]T(Me)IY(Carboxymethyl)[NMeAla(isoquinolin-7-yl)]G[3Pal(6-Ph)][NMeC]-NH2; thioether N-12) | 1.6
5 | CC[C@H](C)[C@@H]1NC(=O)[C@H](Cc2ccc(C(=O)O)cc2)NC(=O)[C@H](CCC(N)=O)N(C)C(=O)[C@H](CC(=O)O)NC(=O)[C@H](CCC(N)=O)N(C)C(=O)[C@H](CCC(N)=O)N(C)C(=O)CSC[C@@H](C(N)=O)N(C)C(=O)[C@H](Cc2ccc(-c3cnn(C)c3)cc2)NC(=O)CNC(=O)[C@H](Cc2ccc3ccccc3c2)N(C)C(=O)[C@H](Cc2ccc(OCCN)cc2)NC(=O)[C@H]([C@@H](C)CC)NC1=O [Conjugate 2-53] ({CH2CO}-[NMeQ][NMeQ]D[NMeQ][Phe(4-COOH)]II[AEF][NMe2Nal]G[Phe(4-(1-Me-pyrazol-4-yl))][NMeC]-NH2; thioether N-12) | 1
6 | CC[C@H](C)[C@@H]1NC(=O)[C@H]([C@@H](C)OC)NC(=O)[C@H](Cc2ccc(C(=O)O)cc2)NC(=O)[C@H](CCCCNC(=O)N2CCN(CC(=O)O)CC2)N(C)C(=O)[C@H](CC(=O)O)NC(=O)[C@H](CCCCNC(=O)N2CCN(CC(=O)O)CC2)N(C)C(=O)[C@H](CCCCN)N(C)C(=O)CSC[C@@H](C(N)=O)N(C)C(=O)[C@H](Cc2ccc(-c3ccccc3)nc2)NC(=O)CNC(=O)[C@H](Cc2ccc3ccncc3c2)N(C)C(=O)[C@H](Cc2ccc(OCC(=O)N3CCN(CC(=O)O)CC3)cc2)NC1=O [Conjugate 2-32] | 1.8
7 | CC[C@H](C)[C@@H]1NC(=O)[C@H](Cc2ccc(C(=O)O)cc2)NC(=O)[C@H](CCCCN)N(C)C(=O)[C@H](CC(=O)O)NC(=O)[C@H](CCC(N)=O)N(C)C(=O)[C@H](CCC(N)=O)N(C)C(=O)CSC[C@@H](C(N)=O)N(C)C(=O)[C@H](Cc2ccc(-c3cnn(C)c3)cc2)NC(=O)CNC(=O)[C@H](Cc2ccc3ccccc3c2)N(C)C(=O)[C@H](Cc2ccc(CC(=O)O)cc2)NC(=O)[C@H]([C@@H](C)CC)NC1=O [Conjugate 2-52] ({CH2CO}-[NMeQ][NMeQ]D[NMeK][Phe(4-COOH)]II[Phe(4-CH2COOH)][NMe2Nal]G[Phe(4-(1-Me-pyrazol-4-yl))][NMeC]-NH2; thioether N-12) | 1.6

Stronger by Kd, values ahead:

Row | Kd [nM] | Structure (SMILES)
8 | 0.5 | CC[C@H](C)[C@@H]1NC(=O)[C@H](Cc2ccc(C(=O)O)cc2)NC(=O)[C@H](CCC(N)=O)N(C)C(=O)[C@H](CC(=O)O)NC(=O)[C@H](CCOC)N(C)C(=O)[C@H](CCCCN)N(C)C(=O)CSC[C@@H](C(N)=O)N(C)C(=O)[C@H](Cc2ccc(-c3cnn(C)c3)cc2)NC(=O)CNC(=O)[C@H](Cc2ccc3ccccc3c2)N(C)C(=O)[C@H](Cc2ccc(CC(=O)O)cc2)NC(=O)[C@H]([C@@H](C)CC)NC1=O [Conjugate 2-48] ({CH2CO}-[NMeK][NMehSer](Me)D[NMeQ][Phe(4-COOH)]II[Phe(4-CH2COOH)][NMe2Nal]G[Phe(4-(1-Me-pyrazol-4-yl))][NMeC]-NH2; thioether N-12)
9 | 0.5 | CC[C@H](C)[C@@H]1NC(=O)[C@H]([C@@H](C)OC)NC(=O)[C@H](Cc2ccc(C(=O)O)cc2)NC(=O)[C@H](CCC(N)=O)N(C)C(=O)[C@H](CC(=O)O)NC(=O)[C@H](CCOC)N(C)C(=O)[C@H](CCCCNC(=O)N2CCN(CC(=O)O)CC2)N(C)C(=O)CSC[C@@H](C(N)=O)N(C)C(=O)[C@H](Cc2ccc(-c3ccccc3)nc2)NC(=O)CNC(=O)[C@H](Cc2ccc3ccncc3c2)N(C)C(=O)[C@H](Cc2ccc(O)cc2)NC1=O [Conjugate 2-24] ({CH2CO}-[NMeK]([CO-Piperazinyl(4-CH2COOH)])[NMehSer](Me)D[NMeQ][Phe(4-COOH)]T(Me)IY[NMeAla(isoquinolin-7-yl)]G[3Pal(6-Ph)][NMeC]-NH2; thioether N-12)
10 | 0.3 | CC[C@H](C)[C@@H]1NC(=O)[C@H]([C@@H](C)OC)NC(=O)[C@H](Cc2ccc(C(=O)O)cc2)NC(=O)[C@H](CNC(=O)N2CCN(CC(=O)O)CC2)N(C)C(=O)[C@H](CC(=O)O)NC(=O)[C@H](CCOC)N(C)C(=O)[C@H](CNC(=O)N2CCN(CC(=O)O)CC2)N(C)C(=O)CSC[C@@H](C(N)=O)N(C)C(=O)[C@H](Cc2ccc(-c3ccccc3)nc2)NC(=O)CNC(=O)[C@H](Cc2ccc3ccccc3c2)N(C)C(=O)[C@H](Cc2ccc(OCCN)cc2)NC1=O [Conjugate 2-33] ({CH2CO}-[NMeDap]([CO-Piperazinyl(4-CH2COOH)])[NMehSer](Me)D[NMeDap]([CO-Piperazinyl(4-CH2COOH)])[Phe(4-COOH)]T(Me)I[AEF][NMe2Nal]G[3Pal(6-Ph)][NMeC]-NH2; thioether N-12 (inferred))
11 | 0.3 | CC[C@H](C)[C@@H]1NC(=O)[C@H]([C@@H](C)OC)NC(=O)[C@H](Cc2ccc(C(=O)O)cc2)NC(=O)[C@H](CCC(N)=O)N(C)C(=O)[C@H](CC(=O)O)NC(=O)[C@H](CCOC)N(C)C(=O)[C@H](C)N(C)C(=O)CSC[C@@H](C(N)=O)N(C)C(=O)[C@H](Cc2ccc(-c3ccccc3)nc2)NC(=O)CNC(=O)[C@H](Cc2ccc3ccccc3c2)N(C)C(=O)[C@H](Cc2ccc(OCCN)cc2)NC1=O [Conjugate 2-28] ({CH2CO}-[NMeA][NMehSer](Me)D[NMeQ][Phe(4-COOH)]T(Me)I[AEF][NMe2Nal]G[3Pal(6-Ph)][NMeC]-NH2; thioether N-12)
12 | 0.2 | CC[C@H](C)[C@@H]1NC(=O)[C@H]([C@@H](C)OC)NC(=O)[C@H](Cc2ccc(C(=O)O)cc2)NC(=O)[C@H](CCC(N)=O)N(C)C(=O)[C@H](CC(=O)O)NC(=O)[C@H](CCOC)N(C)C(=O)[C@H](CCCCN)N(C)C(=O)CSC[C@@H](C(N)=O)N(C)C(=O)[C@H](Cc2ccc(-c3ccccc3)nc2)NC(=O)CNC(=O)[C@H](Cc2ccc3ccncc3c2)N(C)C(=O)[C@H](Cc2ccc(O)cc2)NC1=O [Conjugate 1] ({CH2CO}-[NMeK][NMehSer](Me)D[NMeQ][Phe(4-COOH)]T(Me)IY[NMeAla(isoquinolin-7-yl)]G[3Pal(6-Ph)][NMeC]-NH2; thioether N-12)
13 | 0.2 | CC[C@H](C)[C@@H]1NC(=O)[C@H](Cc2ccc(C(=O)O)cc2)NC(=O)[C@H](CCC(N)=O)N(C)C(=O)[C@H](CC(=O)O)NC(=O)[C@H](CCOC)N(C)C(=O)[C@H](CCCCN)N(C)C(=O)CSC[C@@H](C(N)=O)N(C)C(=O)[C@H](Cc2ccc(-c3ccccc3)nc2)NC(=O)CNC(=O)[C@H](Cc2ccc3ccccc3c2)N(C)C(=O)[C@H](Cc2ccc(CC(=O)O)cc2)NC(=O)[C@H]([C@@H](C)CC)NC1=O [Conjugate 2-47] ({CH2CO}-[NMeK][NMehSer](Me)D[NMeQ][Phe(4-COOH)]II[Phe(4-CH2COOH)][NMe2Nal]G[3Pal(6-Ph)][NMeC]-NH2; thioether N-12)
